# According to publication PMC9025269, “Synthesis and Anti-Hepatitis B Activities of 3′-Fluoro-2′-Substituted Apionucleosides” (Molecules, 2022):
# How the values were obtained:
# [1] = target: T1, HBV polymerase (Hepatitis B virus genotype D subtype ayw, UniProt P03156); experiment: HBV polymerase RdDp activity assay; assay type: biochemical; conditions: read-out: HBV pol IC50
# T1 construct: Recombinant HBV polymerase (Hepatitis B virus genotype D subtype ayw, full length); made in house; host or cells: Sf9 insect cells (baculovirus)
# T1 sequence (P03156 whole entry): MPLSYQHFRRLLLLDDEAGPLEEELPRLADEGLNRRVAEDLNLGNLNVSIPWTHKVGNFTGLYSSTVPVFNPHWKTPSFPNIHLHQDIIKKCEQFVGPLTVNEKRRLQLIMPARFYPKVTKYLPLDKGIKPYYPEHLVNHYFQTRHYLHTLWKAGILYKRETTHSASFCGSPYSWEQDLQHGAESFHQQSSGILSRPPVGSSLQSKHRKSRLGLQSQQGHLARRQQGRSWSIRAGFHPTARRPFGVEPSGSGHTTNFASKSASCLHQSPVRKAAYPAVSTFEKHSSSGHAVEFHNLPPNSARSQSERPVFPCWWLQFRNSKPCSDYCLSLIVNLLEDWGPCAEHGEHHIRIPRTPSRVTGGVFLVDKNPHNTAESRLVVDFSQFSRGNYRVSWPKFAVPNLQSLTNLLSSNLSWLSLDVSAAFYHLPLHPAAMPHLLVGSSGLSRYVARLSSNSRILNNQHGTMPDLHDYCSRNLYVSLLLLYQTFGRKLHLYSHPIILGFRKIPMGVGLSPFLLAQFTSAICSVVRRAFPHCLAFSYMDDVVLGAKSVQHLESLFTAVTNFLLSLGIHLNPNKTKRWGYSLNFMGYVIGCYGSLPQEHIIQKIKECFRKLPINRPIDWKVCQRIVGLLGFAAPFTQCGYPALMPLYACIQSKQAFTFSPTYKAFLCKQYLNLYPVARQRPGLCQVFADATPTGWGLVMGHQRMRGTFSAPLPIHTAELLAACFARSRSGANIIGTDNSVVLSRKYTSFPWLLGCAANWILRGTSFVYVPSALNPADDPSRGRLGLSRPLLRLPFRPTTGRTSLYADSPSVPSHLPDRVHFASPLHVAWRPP
# Text: HIV-1 reverse transcriptase (HIV-1 RT) was purchased from Abcam (cat#ab63979). Recombinant HBV polymerase (Hepatitis B virus genotype D subtype ayw, full length) was cloned using the baculovirus system, expressed in sf9 cells, and purified with similar strategy and methods described by Lanford et al.. A DNA primer (5′-[…]-3′) was synthesized by IDTDNA and a 358-nt RNA template was synthesized in-house using Megascript T7 transcription kit (ThermoFisher, cat#AM1334). dNTPs were purchased from Thermo Fisher and ^3H-dTTP from Perkin Elmer. Filter plates were purchased from Millipore (cat#MABN0V050) and microscint-20 was purchased from Perkin Elmer (cat#6013621).
# The RdDp activity of HBV polymerase was measured similarly as described for the HIV-1 RT. To test compound inhibition effect, the reactions were performed at 30 °C for 120 min in a reaction mixture containing reaction buffer (50 mM Tris-Cl, pH 7.5, 100 mM KCl, 12.5 mM MgCl2, 4 mM DTT), 15 µg/mL polymerase, 0.5 µM DNA primer, 0.05 µM RNA template, 10% DMSO, 0.046 µM dATP, 0.057 µM dGTP, 0.017 µM dCTP, 0.32 µM ^3H-dTTP, and compounds at various concentrations.
# All data were analyzed with GraphPad Prism. […]
# [2] = target: T2, human DNA polymerase α (Homo sapiens, UniProt P09884); experiment: Human DNA polymerase α DdDp assay; assay type: biochemical
# T2 construct: purchased CHIMERx 1075-1
# T2 sequence (P09884 1-1462): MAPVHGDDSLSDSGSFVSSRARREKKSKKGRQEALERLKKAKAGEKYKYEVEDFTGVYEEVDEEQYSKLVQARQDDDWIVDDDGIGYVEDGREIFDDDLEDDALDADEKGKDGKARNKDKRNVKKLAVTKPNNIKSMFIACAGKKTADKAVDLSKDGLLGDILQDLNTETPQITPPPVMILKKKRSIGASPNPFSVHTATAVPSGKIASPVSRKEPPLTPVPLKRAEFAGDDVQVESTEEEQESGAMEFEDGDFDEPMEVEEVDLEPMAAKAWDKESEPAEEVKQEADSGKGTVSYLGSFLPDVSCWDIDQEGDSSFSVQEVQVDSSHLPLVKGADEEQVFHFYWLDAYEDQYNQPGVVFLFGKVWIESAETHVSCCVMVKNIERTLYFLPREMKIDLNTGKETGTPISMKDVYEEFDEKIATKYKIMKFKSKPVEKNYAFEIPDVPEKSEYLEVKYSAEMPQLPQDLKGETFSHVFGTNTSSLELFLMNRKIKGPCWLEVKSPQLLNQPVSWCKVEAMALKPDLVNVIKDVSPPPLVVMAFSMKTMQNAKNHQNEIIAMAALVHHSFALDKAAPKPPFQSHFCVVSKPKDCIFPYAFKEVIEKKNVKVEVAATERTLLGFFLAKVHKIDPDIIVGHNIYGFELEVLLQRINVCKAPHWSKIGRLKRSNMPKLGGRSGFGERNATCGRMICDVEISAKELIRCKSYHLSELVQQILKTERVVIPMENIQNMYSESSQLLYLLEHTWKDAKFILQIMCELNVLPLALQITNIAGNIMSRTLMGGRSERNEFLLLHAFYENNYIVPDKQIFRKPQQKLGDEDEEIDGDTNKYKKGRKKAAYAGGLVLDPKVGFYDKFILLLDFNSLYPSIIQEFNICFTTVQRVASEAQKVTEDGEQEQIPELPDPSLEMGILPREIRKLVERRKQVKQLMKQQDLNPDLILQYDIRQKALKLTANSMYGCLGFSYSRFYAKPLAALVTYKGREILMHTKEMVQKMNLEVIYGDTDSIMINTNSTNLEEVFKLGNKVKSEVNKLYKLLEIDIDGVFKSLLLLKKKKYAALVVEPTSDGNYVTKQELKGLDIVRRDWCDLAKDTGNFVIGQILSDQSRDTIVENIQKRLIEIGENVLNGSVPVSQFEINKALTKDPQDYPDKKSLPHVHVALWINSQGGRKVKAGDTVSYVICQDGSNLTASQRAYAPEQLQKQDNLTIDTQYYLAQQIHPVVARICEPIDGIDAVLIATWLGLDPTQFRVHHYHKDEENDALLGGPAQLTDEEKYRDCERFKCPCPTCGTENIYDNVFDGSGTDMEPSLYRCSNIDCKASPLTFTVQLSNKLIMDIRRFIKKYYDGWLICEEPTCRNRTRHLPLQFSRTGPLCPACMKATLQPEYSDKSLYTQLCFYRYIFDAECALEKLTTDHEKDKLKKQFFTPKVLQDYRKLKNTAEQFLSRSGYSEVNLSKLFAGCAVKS
# Description: The DNA-dependent DNA polymerization (DdDp) activity of human DNA polymerases α, β, and γ was measured as described previously. Briefly, the assays were run with 5 U/mL recombinant DNA polymerase α (CHIMERx, cat#1075-1), 0.5 U/mL recombinant DNA polymerase β (CHIMERx, cat#1077-1), or 0.1 μg/mL recombinant DNA polymerase γ (Abcam, cat#196066), 62 μg/mL activated calf thymus DNA, 50 mM Tris-HCl (pH 8.0), 60 mM KCl, 5 mM MgCl2, 4 mM dithiothreitol (DTT), 0.1 mg/mL BSA, 2 μM dCTP, 2 μM dATP, 2 μM dGTP, 0.05 μCi/μL ^3H-dTTP (Perkin Elmer) and compounds at various concentrations at 30 °C for 2 h. The 50 μL reactions were processed following the same filter plate method as described above for HIV-1 RT. Acid-precipitated tritiated DNA products retained on the filters were detected by a Trilux MicroBeta scintillation reader (Perkin Elmer). All data were analyzed as described above for HIV-1 RT.
structure (smiles),measurement,setting,value
"Nc1ncnc2c1ncn2[C@@H]1OC[C@](F)(COP(=O)(O)OP(=O)(O)OP(=O)(O)O)[C@H]1CO [Compound 38, ((3S,4S,5R)-5-(6-Amino-9H-purin-9-yl)-3-fluoro-4-(hydroxymethyl)tetrahydrofuran-3-yl)methyl triphosphate]",IC50,[1],120 nM
same,IC50,[2],80 µM
same,inhibition of human DNA polymerases,"[2]; human DNA polymerases α, β and γ together",low or no inhibition activity against human DNA polymerases
